What was measured:
[1] = test system: G3BP1 aggregates in E12.5 motor neurons; assay: Endogenous G3BP1 aggregates in MPP+-treated motor neurons; type: cell-based, mouse; details: MPP+ plus 10 μM peptide
Experimental: Previous studies have shown that, exposure of midbrain neurons results in formation of stress granules. To test whether treatment of motor neurons with mitotoxin MPP+ results in the formation of stress granules the inventors stained the MPP+-treated neurons for G3BP1 protein.
(A) Quantification of mitotoxin/neurotoxin MPP+-induced degeneration of DIV7 E12.5 motor neuron neurites after exposure of cultures to 100 μM MPP+ and either 10 μM 190-208 G3BP1 or 168-189 control peptide. As controls, neurons treated with solvents were used. (B) Representative images of G3BP1 (green) and NF-labeled (red) E12.5 motor neurons under control or after treatment with 100 μM MPP+ [scale bar=10 μm]. (C) distribution of sizes of endogenous G3BP1 aggregate per 100 μm neurite is shown as indicated bins from motor neurons cultures as treated in (B). (N≥80 neurites over three repetitions; by one-way ANOVA with Tukey HSD post-hoc). […] (D) Endogenous G3BP1 aggregate sizes per 100 μm neurite indicated as bins for motor neurons either untreated or treated with MPP+ alone or with addition of 10 μM 190-208 G3BP1 or 168-189 control peptide. […] (N≥90 over 3 cultures; by one-way ANOVA with Tukey HSD post-hoc)

[2] = test system: G3BP1 aggregates in midbrain neurons; assay: Endogenous G3BP1 aggregates in MPP+-treated midbrain neurons; type: cell-based, rat; details: MPP+ plus peptide
Source text: Given that the G3BP1 190-208 peptide prevents degeneration induced by treatment with neurotoxins such as MPP+ and Aβ oligomer and decreases G3BP1 aggregates formed due MPP+ and Aβ treatment.
(A) Size of endogenous G3BP1 aggregates per 100 μm of neurite is shown as indicated bins from midbrain cultures under control conditions and after treatment with MPP+alone or with 190-208 G3BP1 or 168-189 peptides. (B) Size distribution of endogenous G3BP1 aggregates per 100 μm of neurite is shown from cortical neurons treated with 1 μM Aβpeptide or with […] 190-208 G3BP1 or 168-189 control peptide. Non-treated neurons were used as a control. […] (N≥90 over 3 cultures; by two-way ANOVA with Tukey HSD post-hoc).

DRG neurons = assay: Axon growth in dissociated DRG cultures; type: cell-based, rat
Experimental: Cell culture. For primary neuronal cultures, L4-5 DRG were harvested in Hybernate-A medium (BrainBits) and then dissociated as described. After centrifugation and washing in DMEM/F12 (Life Technologies), cells were resuspended in DMEM/F12, 1×N1 supplement (Sigma), 10% fetal bovine serum (Hyclone), and 10 μM cytosine arabinoside (Sigma). Dissociated DRGs were plated immediately on laminin/poly-L-lysine-coated coverslips or transfected (see below) and then plated on coated coverslips.
[…] Neurite outgrowth was assessed 24 h after addition of peptides. For the cortical cultures, 10 μM peptide was applied to the axonal compartment at 3 d in vitro (DIV) and axonal growth was assessed at 6 DIV. For iMotor neurons, 20 μM peptides were immediately added and neurite growth was assessed 24 h later.
For neurite outgrowth, images from 60 h DRG cultures were analyzed for neurite outgrowth using WIS-Neuromath. Axon morphology was visualized using GFP and/or NF immunofluorescence as described. Differentiated hiPSC neuron image acquisition and neurite length quantification was performed using Arrayscan XTI (Thermo Fisher).

[3] = test system: axonal protein synthesis in DRG neurons; assay: Puromycinylation assay of axonal protein synthesis; type: cell-based, rat; details: compared to untreated and 168-189 peptide-treated cultures
Experimental: Puromycinylation assay. To visualize newly synthesized proteins in cultured neurons, the inventors used the Click-iT® Plus OPP Protein Synthesis Assay Kit per manufacturer's instructions (Invitrogen/Life Technologies). Briefly, 3 DIV cultures were incubated with 20 μM0-propargyl-puromycin (OPP) for 30 min at 37° C. OPP labeled proteins were detected by crosslinking with Alexa Fluor-594 picolyl azide molecule. Coverslips were then mounted with Prolong Gold Antifade (Invitrogen) and imaged with Leica DMI6000 epifluorescent microscope as above. ImageJ was used to quantify the Puromycinylation signals in distal axons and cell bodies.

[4] = listed as 190-208 G3BP1 peptide
[5] = 10 μM Tat-fused peptide added to DRG cultures immediately after plating

YGNKKNNNQNNN-VVEPEPEPEPEPEPEPVSE [G3BP1 190-208 peptide]
size of endogenous G3BP1 aggregates per 100 μm neurite [1]: decrease in the size of aggregates
size of endogenous G3BP1 aggregates per 100 μm neurite [1, 4]: decrease in the number of larger G3BP1 granules
size of endogenous G3BP1 aggregates per 100 μm of neurite [2]: decrease in the size of G3BP1 aggregates
size of endogenous G3BP1 aggregates per 100 μm of neurite [2, 4]: disassembly of G3BP1 granules
axon length (DRG neurons; [5]): increased axon length
number of neurites per neuron (DRG neurons; [5]): increased the number of neurites per neuron
axon length (DRG neurons; delayed application (peptide added at 12 h, assessed at 36 h), naive and preinjured DRG neurons): significantly increased axon length
puromycin incorporation in DRG axons (axonal protein synthesis) [3]: significantly increased puromycin incorporation
puromycin incorporation in DRG axons (axonal protein synthesis) ([3]; listed as 190-208 peptide): significant increase in axonal protein synthesis

Source: patent US20230190887A1, “TARGETING G3BP AGGREGATION TO PREVENT NEURODEGENERATION” (priority 2019, published 2023)
